Measured values from the supplement of paper PMC9663587.

Legend:
[1] = compound: CCCCOc1c(C(=O)c2c(F)cc(C)cc2F)c[nH]c2nncc1-2
Saracatinib/AZD0530 = compound: CN1CCN(CCOc2cc(OC3CCOCC3)c3c(Nc4c(Cl)ccc5c4OCO5)ncnc3c2)CC1 [Saracatinib/AZD0530]
Rucaparib = compound: CNCc1ccc(-c2[nH]c3cc(F)cc4c3c2CCNC4=O)cc1 [Rucaparib]
THZ531 [2] = compound: T1, CN(C)C/C=C/C(=O)Nc1ccc(C(=O)N2CCC[C@@H](Nc3ncc(Cl)c(-c4c[nH]c5ccccc45)n3)C2)cc1 [THZ531]
BVD523 = compound: CC(C)Nc1cc(-c2c[nH]c(C(=O)N[C@H](CO)c3cccc(Cl)c3)c2)c(Cl)cn1 [BVD523]
THZ1 [3] = compound: T2, CN(C)C/C=C/C(=O)Nc1ccc(C(=O)Nc2cccc(Nc3ncc(Cl)c(-c4c[nH]c5ccccc45)n3)c2)cc1 [THZ1]
[4] = compound: COc1ccc2c(c1)[C@]1(C[C@H]1c1ccc3c(/C=C/c4ccc(CN5C[C@@H](C)O[C@@H](C)C5)cc4)n[nH]c3c1)C(=O)N2
Alpelisib/BYL719 = compound: Cc1nc(NC(=O)N2CCC[C@H]2C(N)=O)sc1-c1ccnc(C(C)(C)C(F)(F)F)c1 [Alpelisib/BYL719]
[5] = compound: CO[C@@H](C)Cn1c(=O)n(C)c2cnc3ccc(-c4cncc(C(C)(C)O)c4)cc3c21
Cediranib/AZD2171 = compound: COc1cc2c(Oc3ccc4[nH]c(C)cc4c3F)ncnc2cc1OCCCN1CCCC1 [Cediranib/AZD2171]
[6] = compound: CC(=O)Nc1cccc(-n2c(=O)n(C3CC3)c(=O)c3c(Nc4ccc(I)cc4F)n(C)c(=O)c(C)c32)c1
AZD1775 = compound: C=CCn1c(=O)c2cnc(Nc3ccc(N4CCN(C)CC4)cc3)nc2n1-c1cccc(C(C)(C)O)n1 [AZD1775]
YKL-5-124 = compound: C=CC(=O)Nc1ccc(C(=O)Nc2[nH]nc3c2CN(C(=O)N[C@H](CN(C)C)c2ccccc2)C3(C)C)cc1 [YKL-5-124]; assay: increase in dead-cell fraction, 72 h; higher = more death;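 also: breast cancer cell lines in 384-well plates, stained with Hoechst plus LIVE/DEAD far red dye and imaged, cells above an LDR intensity threshold counted dead, Hoechst-negative corpses included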
[7] = compound: CC(=O)c1c(C)c2cnc(Nc3ccc(N4CCNCC4)cn3)nc2n(C2CCCC2)c1=O; assay: as above
THZ531 [8] = compound: T1, THZ531; assay: as above
THZ1 [9] = compound: T2, THZ1; assay: as above
[10] = compound: CCc1cnn2c(NCc3ccc[n+]([O-])c3)cc(N3CCCC[C@H]3CCO)nc12; assay: as above
LEE011/Ribociclib = compound: CN(C)C(=O)c1cc2cnc(Nc3ccc(N4CCNCC4)cn3)nc2n1C1CCCC1 [LEE011/Ribociclib]; assay: as above
Neratinib/HKI272 = compound: CCOc1cc2ncc(C#N)c(Nc3ccc(OCc4ccccn4)c(Cl)c3)c2cc1NC(=O)/C=C/CN(C)C [Neratinib/HKI272]; assay: as above
BSJ-03-123 = compound: CC(=O)c1c(C)c2cnc(Nc3ccc(N4CCN(CCOCCOCCOCCNC(=O)COc5cccc6c5C(=O)N(C5CCC(=O)NC5=O)C6=O)CC4)cn3)nc2n(C2CCCC2)c1=O [BSJ-03-123]; assay: as above
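For GR50, 72 h in this document: breast cancer and non-malignant breast epithelial cell lines, Deep Dye Drop or Dye Drop imaging, nine half-log doses, GR normalized to time-zero plates and DMSO-only controls.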

CAL51
GR50, 72 h [1]: 3.95 µM
GR50, 72 h (Saracatinib/AZD0530): 1.85 µM
GR50, 72 h (Rucaparib): > 10 µM
GR50, 72 h (THZ531 [2]): > 1 µM
GR50, 72 h (BVD523): > 10 µM
GR50, 72 h (THZ1 [3]): 0.385 µM
GR50, 72 h [4]: 0.00556 µM
GR50, 72 h (Alpelisib/BYL719): 6.1 µM
GR50, 72 h [5]: 0.0113 µM
GR50, 72 h (Cediranib/AZD2171): 3.05 µM
GR50, 72 h [6]: > 1 µM
GR50, 72 h (AZD1775): 0.274 µM
increase in dead-cell fraction (YKL-5-124; 0.001 µM): 0.0123
increase in dead-cell fraction (YKL-5-124; 0.003162 µM): 0.0229
increase in dead-cell fraction (YKL-5-124; 0.01 µM): 0.0534
increase in dead-cell fraction (YKL-5-124; 0.03162 µM): 0.0508
increase in dead-cell fraction (YKL-5-124; 0.1 µM): 0.0599
increase in dead-cell fraction (YKL-5-124; 0.3162 µM): 0.0693
increase in dead-cell fraction (YKL-5-124; 1 µM): 0.0723
increase in dead-cell fraction (YKL-5-124; 3.162 µM): 0.134
increase in dead-cell fraction (YKL-5-124; 10 µM): 0.192
increase in dead-cell fraction ([7]; 0.0003162 µM): -0.0042
increase in dead-cell fraction ([7]; 0.001 µM): -0.0013
increase in dead-cell fraction ([7]; 0.003162 µM): -0.0116
increase in dead-cell fraction ([7]; 0.01 µM): -0.0114
increase in dead-cell fraction ([7]; 0.03162 µM): -0.0305
increase in dead-cell fraction ([7]; 0.1 µM): -0.0374
increase in dead-cell fraction ([7]; 0.3162 µM): -0.0371
increase in dead-cell fraction ([7]; 1 µM): -0.036
increase in dead-cell fraction ([7]; 3.162 µM): -0.029
increase in dead-cell fraction (THZ531 [8]; 0.0001 µM): 0.0035
increase in dead-cell fraction (THZ531 [8]; 0.0003162 µM): 0.0008
increase in dead-cell fraction (THZ531 [8]; 0.001 µM): 0.0008
increase in dead-cell fraction (THZ531 [8]; 0.003162 µM): -0.0007
increase in dead-cell fraction (THZ531 [8]; 0.01 µM): -0.0017
increase in dead-cell fraction (THZ531 [8]; 0.03162 µM): 0.0021
increase in dead-cell fraction (THZ531 [8]; 0.1 µM): 0.0037
increase in dead-cell fraction (THZ531 [8]; 0.3162 µM): 0.019
increase in dead-cell fraction (THZ531 [8]; 1 µM): 0.0391
increase in dead-cell fraction (THZ1 [9]; 0.0001 µM): -0.0022
increase in dead-cell fraction (THZ1 [9]; 0.0003162 µM): -0.0006
increase in dead-cell fraction (THZ1 [9]; 0.001 µM): -0.0009
increase in dead-cell fraction (THZ1 [9]; 0.003162 µM): 0.0009
increase in dead-cell fraction (THZ1 [9]; 0.01 µM): 0.0002
increase in dead-cell fraction (THZ1 [9]; 0.03162 µM): 0.0038
increase in dead-cell fraction (THZ1 [9]; 0.1 µM): 0.0149
increase in dead-cell fraction (THZ1 [9]; 0.3162 µM): 0.046
increase in dead-cell fraction (THZ1 [9]; 1 µM): 0.117
increase in dead-cell fraction ([10]; 0.0001 µM): -0.0015
increase in dead-cell fraction ([10]; 0.0003162 µM): -0.0015
increase in dead-cell fraction ([10]; 0.001 µM): 0.0029
increase in dead-cell fraction ([10]; 0.003162 µM): 0.0026
increase in dead-cell fraction ([10]; 0.01 µM): -0.0001
increase in dead-cell fraction ([10]; 0.03162 µM): 0.437
increase in dead-cell fraction ([10]; 0.1 µM): 0.584
increase in dead-cell fraction ([10]; 0.3162 µM): 0.58
increase in dead-cell fraction ([10]; 1 µM): 0.532
increase in dead-cell fraction (LEE011/Ribociclib; 0.001 µM): -0.0032
increase in dead-cell fraction (LEE011/Ribociclib; 0.003162 µM): -0.0038
increase in dead-cell fraction (LEE011/Ribociclib; 0.01 µM): -0.0003
increase in dead-cell fraction (LEE011/Ribociclib; 0.03162 µM): 0.0052
increase in dead-cell fraction (LEE011/Ribociclib; 0.1 µM): 0.0083
increase in dead-cell fraction (LEE011/Ribociclib; 0.3162 µM): 0.0065
increase in dead-cell fraction (LEE011/Ribociclib; 1 µM): 0.0053
increase in dead-cell fraction (LEE011/Ribociclib; 3.162 µM): 0.0086
increase in dead-cell fraction (LEE011/Ribociclib; 10 µM): 0.0229
increase in dead-cell fraction (Neratinib/HKI272; 0.0003162 µM): 0.0033
increase in dead-cell fraction (Neratinib/HKI272; 0.001 µM): -0.0017
increase in dead-cell fraction (Neratinib/HKI272; 0.003162 µM): 0.0074
increase in dead-cell fraction (Neratinib/HKI272; 0.01 µM): 0.0041
increase in dead-cell fraction (Neratinib/HKI272; 0.03162 µM): 0.0026
increase in dead-cell fraction (Neratinib/HKI272; 0.1 µM): 0.0003
increase in dead-cell fraction (Neratinib/HKI272; 0.3162 µM): -0.0046
increase in dead-cell fraction (Neratinib/HKI272; 1 µM): -0.0094
increase in dead-cell fraction (Neratinib/HKI272; 3.162 µM): 0.0911
increase in dead-cell fraction (BSJ-03-123; 0.001 µM): -0.0039
increase in dead-cell fraction (BSJ-03-123; 0.003162 µM): -0.0056
increase in dead-cell fraction (BSJ-03-123; 0.01 µM): -0.004
increase in dead-cell fraction (BSJ-03-123; 0.03162 µM): -0.0021
increase in dead-cell fraction (BSJ-03-123; 0.1 µM): -0.0017
increase in dead-cell fraction (BSJ-03-123; 0.3162 µM): -0.0037
increase in dead-cell fraction (BSJ-03-123; 1 µM): 0.0033
increase in dead-cell fraction (BSJ-03-123; 3.162 µM): 0.0021
increase in dead-cell fraction (BSJ-03-123; 10 µM): 0.128
